The structures appear in SMILES notation.

In the experiment the target is Mushroom tyrosinase (Agaricus bisporus, UniProt O42713+Q00024+C7FF04+C7FF05). The experiment can be described thus: Inhibition of mushroom tyrosinase […] measured at 60 secs interval for 25 times.
The IC50 is the midpoint of a concentration-inhibition curve. High values mean a need for much substance, low ones inhibition by little substance. Take `O=C(O)c1cccc(-c2ccccc2)c1`: the IC50 was determined as 6.97 µM.

With `O=C(O)c1ccccc1-c1ccccc1`, the IC50 is greater than 100 µM.

For `O=C(O)c1ccc(-c2ccccc2)cc1`, the concentration for half-maximal inhibition (IC50) was determined as 63.24 µM.

As for `O=C(O)c1ccc(-c2ccc(O)cc2)cc1`, the IC50 is 14.7 µM.

Take `O=C(O)c1cccc(-c2ccc(O)cc2)c1`: the IC50 stood at 10.59 µM.

`COc1ccc(-c2ccc(C(=O)O)cc2)cc1` gave an IC50 of 15.3 µM.

`O=C(O)c1ccccc1-c1ccc(O)cc1` displayed an IC50 of 100.18 µM.

`COc1ccc(-c2cccc(C(=O)O)c2)cc1` registered an IC50 of 15.3 µM.

Regarding `COc1ccc(-c2ccccc2C(=O)O)cc1`, the IC50 is greater than 100 µM.
